Assay results: patent publication USRE34918E, “Azaazulene compounds which are useful as antiallergic and antiinflammatory agents” (Kaken Pharmaceutical Co., Ltd., priority 1988, dated 1995)
Counter-ions that a name gives are not always drawn.

Each compound was assayed against T1, 5-lipoxygenase (Cavia porcellus, UniProt A0A286X958) (assay: 5-lipoxygenase inhibiting activity in guinea pig). Details: read-out: Inhibition rate against 5-lipoxygenase activity.
T1 construct: 5-lipoxygenase was prepared with polymorphonuclear leukocyte obtained from peritoneal cavity; endogenous in cells; host or cells: guinea pig peritoneal polymorphonuclear leukocytes (casein-elicited)
T1 sequence (A0A286X958 1-674): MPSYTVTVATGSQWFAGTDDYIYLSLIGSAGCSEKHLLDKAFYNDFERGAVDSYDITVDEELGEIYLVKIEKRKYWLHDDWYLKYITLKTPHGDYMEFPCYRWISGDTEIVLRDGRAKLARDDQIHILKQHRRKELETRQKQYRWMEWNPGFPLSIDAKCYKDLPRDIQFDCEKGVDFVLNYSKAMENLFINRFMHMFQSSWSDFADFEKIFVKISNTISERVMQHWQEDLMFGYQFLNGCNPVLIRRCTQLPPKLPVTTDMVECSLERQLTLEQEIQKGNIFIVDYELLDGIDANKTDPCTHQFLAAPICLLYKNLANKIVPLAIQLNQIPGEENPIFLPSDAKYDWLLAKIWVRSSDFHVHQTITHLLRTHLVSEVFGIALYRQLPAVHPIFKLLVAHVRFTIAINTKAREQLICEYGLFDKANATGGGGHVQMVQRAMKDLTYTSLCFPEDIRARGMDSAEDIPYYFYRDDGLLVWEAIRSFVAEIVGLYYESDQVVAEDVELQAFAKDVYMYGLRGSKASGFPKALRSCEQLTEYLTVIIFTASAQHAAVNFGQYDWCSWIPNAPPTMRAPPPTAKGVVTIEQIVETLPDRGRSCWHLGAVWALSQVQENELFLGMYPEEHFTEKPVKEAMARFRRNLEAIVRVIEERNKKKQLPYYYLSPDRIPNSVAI
Assay type: biochemical
Experimental: The test was carried out according to the method of Ochi [cf. J. Biol. Chem., 258, 5754-5758 (1983)]. Two % casein solution in saline was injected intraperitoneally into guinea pigs in an amount of 1/10 of body weight. After 16 hours, 5-lipoxygenase was prepared with polymorphonuclear leukocyte obtained from peritoneal cavity. Test compound and 5-lipoxygenase were pre-incubated at 30° C. for 10 minutes, CaCl2 (calcium chloride) and ^14 C-arachidonic acid were added thereto, and the resulting mixture was incubated for 20 minutes. A mixture of ethyl acetate/methanol/0.2M citric acid=30/4/1 (by volume) was added thereto to stop the reaction. After centrifugation, the organic solvent layer was spotted on a plate for thin layer chromatography and developed. Effect of the test compound was determined from the amount of ^14 C-5-hydroxyeicosatetraenoic acid (hereinafter referred to as "5-HETE") formed from ^14 C-arachidonic acid. Radioactivity of 5-HETE position was measured with a liquid scintillation counter.
Inhibition rate against 5-lipoxygenase activity was calculated according to the following equation.
Inhibition rate against 5-lipoxygenase activity [formula] A: Value of radioactivity in the control group B: Value of radioactivity in the test compound group
Each test compound was used in a concentration of 10 μM.
With `O=c1c(-c2nn[nH]n2)c2cccccc-2n1CCOc1ccccc1` [Example 43] the inhibition at 10 µM was -7.2%. For `O=C(O)c1ccc(Cn2c3cccccc-3c(-c3nn[nH]n3)c2=O)cc1` [Example 38], the inhibition at 10 µM was 31.7%. In the case of `O=c1c(-c2nn[nH]n2)c2cccccc-2n1CCc1ccc(O)c(O)c1` [Example 46], the inhibition at 10 µM is reported as 41.8%. Compound `O=c1c(-c2nn[nH]n2)c2cccccc-2n1Cc1ccc(C(F)(F)F)cc1` [Example 35] has an inhibition at 10 µM of 34.9%.

Each compound was assayed on histamine release from rat mast cell (assay: Inhibitory activity against histamine release from rat mast cell). Details: 10 μg/ml, read-out: Inhibitory rate against histamine release.
Assay type: cell-based
Experimental: An anti-dinitrophenylated-ovalbumin (anti DNP-OVA) rat antiserum having 800 of PCA titer in homologous passive cutaneous anaphylaxis reaction in rats for 48 hours was diluted double with physiological saline, and 1 ml of diluted antiserum was injected intraperitoneally into rats to be passively sensitized. On the next day, peritoneal exudation cell (hereinafter referred to as "PEC") was collected. The collected PEC was washed with a medium containing 0.1% BSA, and 1.5×10^5 of the PEC were added to each test tube. AFter incubation at 37° C. for 10 minutes, 50 μl of test compound solution in a same medium was added thereto. After 30 seconds, 50 μl of antigen solution (DVA-OVA 100 μg/ml) was further added thereto to give the total amount of 500 μl of the reaction mixture, and histamine release reaction was induced. After 10 minutes, 1 ml of physiological saline with cooled Tris buffered solution containing 1 mM EDTA were added thereto to stop the reaction. After centrifugation, the amount of histamine in supernatant was determined by fluorescence method according to the method of Shore et al [cf. J. Pharmacol. Exp. Ther., 127, 182 (1959)]. Inhibition rate against histamine release was calculated according to the following equation.
Inhibition rate against histamine release [formula] M: Amount of histamine in supernatant under addition of antigen and non-addition of test compound
S: Amount of histamine in supernatant under addition of antigen and test compound
B: Amount of histamine in supernatant under non-addition of antigen and test compound.
The test compound was used in a concentration of 10 μg/ml.
Compound `CCOCCn1c2cccccc-2c(-c2nnn[nH]2)c1=O` [Example 23] has an inhibition at 10 µg/mL of 87.2%. With `CC(C)c1cccc2n(CCc3ccc(O)c(O)c3)c(=O)c(-c3nnn[nH]3)c-2c1` [Example 12, 1-(3,4-Dihydroxyphenylethyl)-5-iso-propyl-3-(5-tetrazolyl)-1-azaazulane-2-one] the inhibition at 10 µg/mL was 60%. Compound `CC(C)c1cccc2c(-c3nn[nH]n3)c(=O)n(Cc3ccc(Cl)cc3)c-2c1` [Example 57] has an inhibition at 10 µg/mL of 89%. For `O=C(Cn1c2cccccc-2c(-c2nn[nH]n2)c1=O)c1ccc(Cl)cc1` [Example 41], the inhibition at 10 µg/mL was 32.3%. Work on `COc1ccc(Cn2c3cccccc-3c(-c3nn[nH]n3)c2=O)cc1` [Example 39] yielded an inhibition at 10 µg/mL of 93%. Compound `O=c1c(-c2nn[nH]n2)c2cccccc-2n1CCOc1ccccc1` [Example 43] has an inhibition at 10 µg/mL of 65.3%. In the case of `O=C(O)c1ccc(Cn2c3cccccc-3c(-c3nn[nH]n3)c2=O)cc1` [Example 38], the inhibition at 10 µg/mL is reported as 24.4%. Work on `Cn1c2cccccc-2c(-c2nnn[nH]2)c1=O` [Example 15] yielded an inhibition at 10 µg/mL of 96.1%. In the case of `COc1ccccc1N1CCN(c2nc3cccccc-3c2C#N)CC1` [Example 64, 3-Cyano-2-(4-(2-methoxyphenyl)piperazinyl)-1-azaazulene], the inhibition at 10 µg/mL is reported as -12.2%. For `CC(C)c1cccc2c(-c3nn[nH]n3)c(=O)n(CCc3ccccc3)c-2c1` [Example 27], the inhibition at 10 µg/mL was 89.6%. With `CCCCCCn1c2cccccc-2c(-c2nnn[nH]2)c1=O` [Example 20] the inhibition at 10 µg/mL was 91.1%. In the case of `CC(C)n1c2cccccc-2c(-c2nn[nH]n2)c1=O` [Example 52], the inhibition at 10 µg/mL is reported as 81.2%. Compound `CCCCCCCCCCCCCCCCCCn1c2cccccc-2c(-c2nnn[nH]2)c1=O` [Example 21] has an inhibition at 10 µg/mL of 10.1%. `O=c1c(-c2nn[nH]n2)c2cccccc-2n1CCCCc1ccccc1` [Example 31] gave an inhibition at 10 µg/mL of 70%. `O=c1[nH]c2cccccc-2c1-c1nnn[nH]1` [Example 14] showed an inhibition at 10 µg/mL of 89.6%. `O=c1c(-c2nnn[nH]2)c2cccccc-2n1Cc1ccc(F)cc1` [Example 8, 1-(4-Fluorobenzyl)-3-(5-tetrazolyl)-1-azaazulane-2-one] was tested, and the inhibition at 10 µg/mL was 89.6%. In the case of `O=c1c(-c2nn[nH]n2)c2cccccc-2n1CCCCCc1ccccc1` [Example 32], the inhibition at 10 µg/mL is reported as 1.5%. `N#Cc1c2cccccc-2nc1N1CCCC1C(=O)O` (stereo not shown) [Example 78] showed an inhibition at 10 µg/mL of 50.5%. `COC(=O)C1CCCN1c1nc2cccccc-2c1C#N` (stereo not shown) [Example 77] was tested, and the inhibition at 10 µg/mL was 35.7%. Compound `O=c1c(-c2nnn[nH]2)c2cccccc-2n1Cc1ccc(Cl)cc1` [Example 11, 1-(4-Chlorobenzyl)-3-(5-tetrazolyl)-1-azaazulane-2-one] has an inhibition at 10 µg/mL of 85.8%. In the case of `CC(C)c1cccc2c(C#N)c(N=[N+]=[N-])nc-2c1` [Example 61, 2-Azido-3-cyano-7-isopropyl-1-azaazulene], the inhibition at 10 µg/mL is reported as 3.8%. Compound `O=c1c(-c2nn[nH]n2)c2cccccc-2n1CCCc1ccccc1` [Example 28] has an inhibition at 10 µg/mL of 92.6%. `O=c1c(-c2nn[nH]n2)c2cccccc-2n1Cc1cccc(F)c1` [Example 33] showed an inhibition at 10 µg/mL of 67.2%. `CCOC(=O)c1ccc(Nc2nc3cccccc-3c2C#N)cc1` [Example 66] gave an inhibition at 10 µg/mL of 20.5%. With `O=c1c(-c2nn[nH]n2)c2cccccc-2n1Cc1ccc(O)cc1` [Example 40] the inhibition at 10 µg/mL was 93.5%. `O=c1c(-c2nn[nH]n2)c2cccccc-2n1CCc1ccc(O)c(O)c1` [Example 46] gave an inhibition at 10 µg/mL of 57.6%. For `CC(C)c1cccc2c(C#N)c(NCC(=O)O)nc-2c1` [Example 79], the inhibition at 10 µg/mL was 85.8%. For `O=c1c(-c2nn[nH]n2)c2cccccc-2n1Cc1ccc(C(F)(F)F)cc1` [Example 35], the inhibition at 10 µg/mL was 54.1%. With `N#Cc1c2cccccc-2nc1Nc1ccc(C(=O)O)cc1` [Example 67] the inhibition at 10 µg/mL was 57%. `N#Cc1c2cccccc-2nc1NC(c1ccccc1)c1ccccc1` [Example 65] was tested, and the inhibition at 10 µg/mL was 17.5%. Compound `N#Cc1c2cccccc-2nc1N1CCN(C(c2ccccc2)c2ccccc2)CC1` [Example 69] has an inhibition at 10 µg/mL of 33.2%. Compound `O=c1c(-c2nn[nH]n2)c2cccccc-2n1CCCCl` [Example 54] has an inhibition at 10 µg/mL of 55.5%. For `CCOC(=O)C(Cc1ccccc1)Nc1nc2cccccc-2c1C#N` (stereo not shown) [Example 70], the inhibition at 10 µg/mL was 4.2%. With `O=c1c(-c2nn[nH]n2)c2cccccc-2n1CCc1ccccc1` [Example 26] the inhibition at 10 µg/mL was 94.1%. With `CC(C)c1cccc2nc(NCC(=O)O)c(C#N)c-2c1` [Example 63, Sodium salt of 2-carboxymethylamino-3-cyano-5-isopropyl-1-azaazulene] the inhibition at 10 µg/mL was 85.3%. Work on `CC(C)c1cccc2n(Cc3ccc(Cl)cc3)c(=O)c(-c3nn[nH]n3)c-2c1` [Example 56] yielded an inhibition at 10 µg/mL of 88%. `O=c1c(-c2nn[nH]n2)c2cccccc-2n1CC=Cc1ccccc1` [Example 42] gave an inhibition at 10 µg/mL of 78.2%. Work on `O=c1c(-c2nn[nH]n2)c2cccccc-2n1Cc1ccc(Cl)cc1Cl` [Example 45] yielded an inhibition at 10 µg/mL of 19.3%. With `CC(Nc1nc2cccccc-2c1C#N)C(=O)O` (stereo not shown) [Example 73] the inhibition at 10 µg/mL was 60.8%. `CC(C)c1cccc2nc(N=[N+]=[N-])c(C#N)c-2c1` [Example 76] was tested, and the inhibition at 10 µg/mL was 70.5%. `N#Cc1c2cccccc-2nc1NCCC(c1ccccc1)c1ccccc1` [Example 59, 3-Cyano-2-(3,3-diphenylpropylamino)-1-azaazulene] was tested, and the inhibition at 10 µg/mL was 14%. `CC(C)c1cccc2n(Cc3ccc4ccccc4n3)c(=O)c(-c3nn[nH]n3)c-2c1` [Example 53] was tested, and the inhibition at 10 µg/mL was 56.3%. Work on `CCCc1c(OCCCn2c3cccc(C(C)C)cc-3c(-c3nn[nH]n3)c2=O)ccc(C(C)=O)c1O` [Example 50] yielded an inhibition at 10 µg/mL of 59.8%. In the case of `O=c1c(-c2nnn[nH]2)c2cccccc-2n1CCC(c1ccccc1)c1ccccc1` [Example 25], the inhibition at 10 µg/mL is reported as 4.6%. With `N#Cc1c2cccccc-2nc1N` [Example 74] the inhibition at 10 µg/mL was 64.8%. Work on `C=CCn1c2cccccc-2c(-c2nnn[nH]2)c1=O` [Example 22] yielded an inhibition at 10 µg/mL of 84.2%. Work on `Cc1cc(C)c(Cn2c3cccccc-3c(-c3nn[nH]n3)c2=O)c(C)c1` [Example 47] yielded an inhibition at 10 µg/mL of 12.6%. `N#Cc1c2cccccc-2nc1NCCN1CCCC1` [Example 75] gave an inhibition at 10 µg/mL of -9.6%. `N#CCCCn1c2cccccc-2c(-c2nnn[nH]2)c1=O` [Example 24] gave an inhibition at 10 µg/mL of 86.3%. Compound `CCOC(=O)c1ccc(Cn2c3cccccc-3c(-c3nn[nH]n3)c2=O)cc1` [Example 37] has an inhibition at 10 µg/mL of 64.8%. `N#Cc1c2cccccc-2nc1NC(Cc1ccccc1)C(=O)O` (stereo not shown) [Example 71] was tested, and the inhibition at 10 µg/mL was 8.1%. For `N#Cc1c2cccccc-2nc1NCC(c1ccccc1)c1ccccc1` [Example 58, 3-Cyano-2-(2,2-diphenylethylamino)-1-azaazulene], the inhibition at 10 µg/mL was 16.1%. Work on `COC(=O)c1ccccc1Nc1nc2cccccc-2c1C#N` [Example 68] yielded an inhibition at 10 µg/mL of 8.9%. With `N#Cc1ccc(Cn2c3cccccc-3c(-c3nn[nH]n3)c2=O)cc1` [Example 36] the inhibition at 10 µg/mL was 43.2%. `O=c1c(-c2nn[nH]n2)c2cccccc-2n1Cc1ccccc1F` [Example 34] showed an inhibition at 10 µg/mL of 87.3%. `N#Cc1c2cccccc-2nc1NC(CO)C(=O)O` (stereo not shown) [Example 72] showed an inhibition at 10 µg/mL of 22.5%. Work on `CC(C)c1cccc2n(Cc3cccs3)c(=O)c(-c3nn[nH]n3)c-2c1` [Example 55] yielded an inhibition at 10 µg/mL of 65.8%.
